Test results: patent US7678918B2, “Intermediates for imidazonaphthyridines” (3M Innovative Properties Company, priority 1997, dated 2010)

Key:
[1] = system: IFN; test: Cytokine Induction in Human Cells: interferon (IFN) secreted by PBMCs, A549/encephalomyocarditis bioassay; type: cell-based; details: 18 to 24 hours
From the text: (§1) An in vitro human blood cell system was used to assess cytokine induction by compounds of the invention. Activity is based on the measurement of interferon and tumor necrosis factor (ℑ) (IFN and TNF, respectively) secreted into culture media as described by Testerman et. al. In “Cytokine Induction by the Immunomodulators Imiquimod and S-27609”, Journal of Leukocyte Biology, 58, 365-372 (September, 1995). Blood Cell Preparation for Culture
(§2) Whole blood is collected by venipuncture into EDTA vacutainer tubes from healthy human donors. Peripheral blood mononuclear cells (PBMCs) are separated from whole blood by Histopaque®-1077 (Sigma Chemicals, St. Louis, Mo.) density gradient centrifugation. The PBMCs are suspended at 1.5-2×10^6 cells/mL in RPMI 1640 medium containing 10% fetal bovine serum, 2 mM L-glutamine and 1% penicillin/streptomycin solution (RPMI complete). 1 mL portions of PBMC suspension are added to 24 well flat bottom sterile tissue culture plates.
(§3) The compounds are solubilized in dimethyl sulfoxide (DMSO). The DMSO concentration should not exceed a final concentration of 1% for addition to the culture wells. The compounds are generally tested in a concentration range of from 0.1 to 100 μM.
(§4) The solution of test compound is added to the wells containing 1 mL of PBMCs in media. The plates are covered with plastic lids, mixed gently and then incubated for 18 to 24 hours at 37° C. with a 5% carbon dioxide atmosphere.
(§5) Following incubation the plates are centrifuged for 5-10 minutes at 1000 rpm (˜200×g) at 4° C. The cell culture supernatant is removed with a sterile polypropylene pipet and transferred to a 2 mL sterile cryotube. Samples are maintained at −70° C. until analysis.
Interferon is determined by bioassay using A549 human lung carcinoma cells challenged with encephalomyocarditis. The details of the bioassay method have been described by G. L. Brennan and L. H. Kronenberg in “Automated Bioassay of Interferons in Micro-test Plates”, Biotechniques, June/July 78, 1983, incorporated herein by reference. Briefly stated the method is as follows: A549 cells are incubated with samples and standard interferon dilutions at 37° C. for 24 hours. The incubated cells are then infected with an inoculum of encephalomyocarditis virus. The infected cells are incubated for an additional 24 hours at 37° C. before quantifying for viral cytopathic effect. The viral cytopathic effect is quantified by staining followed by visual scoring of the plates. Results are expressed as alpha reference units/mL based on the value obtained for NIH Human Leukocyte IFN standard.

[2] = system: TNF; test: Cytokine Induction in Human Cells: tumor necrosis factor (TNF) secreted by PBMCs, ELISA; type: cell-based; details: 18 to 24 hours
From the text: as §1, §2, §3, §4, §5
Tumor necrosis factor (ℑ) (TNF) concentration is determined using an ELISA kit available from Genzyme, Cambridge, Mass. The results are expressed as pg/mL.
Note: call rule not given here.

SMILES | IFN induction ([1]; Dose Concentration 0.1 μM) | IFN induction ([1]; Dose Concentration 1.0 μM) | IFN induction ([1]; Dose Concentration 10.0 μM) | IFN induction ([1]; Dose Concentration 100.0 μM) | TNF induction ([2]; Dose Concentration 0.1 μM) | TNF induction ([2]; Dose Concentration 1.0 μM) | TNF induction ([2]; Dose Concentration 10.0 μM) | TNF induction ([2]; Dose Concentration 100.0 μM)
CCCCc1nc2c(N)nc3cccnc3c2n1CCCCNC(=O)CCCCC(=O)OC [Example 182] | − | + | + | + | − | + | + | −
CCCCc1nc2c(N)nc3cccnc3c2n1CCNC(=O)CCCCC(=O)OC [Example 145] | − | − | + | + | − | + | + | +
CCCCc1nc2c(N)nc3cccnc3c2n1CCCCNC(=O)CC(C)(C)C [Example 172] | + | + | + | + | − | + | + | +
CCCCCCCCCCCC(=O)NCCn1c(CCCC)nc2c(N)nc3cccnc3c21 [Example 201] | − | − | − | − | − | − | − | +
CCCCc1nc2c(N)nc3cccnc3c2n1CCNC(=O)c1cnc(C)cn1 [Example 205] | + | + | + | + | − | + | + | +
CCCCc1nc2c(N)nc3cccnc3c2n1CCCCNC(=O)c1cccc(Br)c1 [Example 153] | − | + | + | − | − | + | + | −
CCCCc1nc2c(N)nc3cccnc3c2n1CCCCNC(=O)OCC [Example 58, Ethyl N-[4-(4-Amino-2-butyl-1H-imidazo[4,5-c][1,5]naphthyridin-1-yl)butyl]carbamate] | + | + | + | − | − | + | + | −
CCCCc1nc2c(N)nc3cccnc3c2n1CCCCNC(=O)C1CC1 [Example 173] | + | + | + | + | − | + | + | +
CCCCc1nc2c(N)nc3cccnc3c2n1CCCCNC(=O)CCC1CCCC1 [Example 175] | − | + | + | − | − | + | + | −
CCCCc1nc2c(N)nc3cccnc3c2n1CCCCNC(=O)NCc1ccccc1 [Example 53, N-[4-(4-Amino-2-butyl-1H-imidazo[4,5-c][1,5]naphthyridin-1-yl)butyl]-N′-benzylurea] | + | + | + | + | − | + | + | −
CCCCCCCOc1ccc(C(=O)NCCn2c(CCCC)nc3c(N)nc4cccnc4c32)cc1 [Example 149] | − | − | − | − | − | − | − | −
CCCCc1nc2c(N)nc3cccnc3c2n1CCNC(=O)COCc1ccccc1 [Example 121] |  | + | + | + |  | + | + | +
CCCCc1nc2c(N)nc3cccnc3c2n1CCCCNC(=O)Nc1ccccc1 [Example 47, N-[4-(4-Amino-2-butyl-1H-imidazo[4,5-c][1,5]naphthyridin-1-yl)butyl]-N′-phenylurea] | − | + | + | ± | − | + | + | +
CCCCc1nc2c(N)nc3cccnc3c2n1CCNC(=O)c1ccc(Br)o1 [Example 206] | + | + | + | + | − | + | + | +
CCCCc1nc2c(N)nc3cccnc3c2n1CCCCNC(=O)c1cc(C(F)(F)F)cc(C(F)(F)F)c1 [Example 161] | ± | + | + | + | − | − | + | +
CCCCc1nc2c(N)nc3cccnc3c2n1CCNC(=O)c1ccc(C#N)cc1 [Example 139] |  | + | + | + |  | − | + | +
CCCCc1nc2c(N)nc3cccnc3c2n1CCCCNC(=O)c1ccc(C(=O)c2ccccc2)cc1 [Example 113, N^1-[4-(4-Amino-2-butyl-1H-imidazo[4,5-c][1,5]naphthyridin-1-yl)butyl]-4-benzoylbenzamide] | − | + | + | + | − | + | + | +
CCCCc1nc2c(N)nc3cccnc3c2n1CCNC(=O)C1CCCC1 [Example 137] |  | + | + | + |  | − | ± | +
CCCCc1nc2c(N)nc3cccnc3c2n1CCCCNC(=O)c1ccc(N2CCOCC2)nc1 [Example 106, N^1-[4(4-Amino-2-butyl-1H-imidazo[4,5-c][1,5]naphthyridin-1-yl)butyl]-6-morpholinonicotinamide] | + | + | + | − | − | + | + | −
CCCCc1nc2c(N)nc3cccnc3c2n1CCCCNC(=O)CC1CCCC1 [Example 160] | + | + | + | − | − | + | + | −
CCCCc1nc2c(N)nc3cccnc3c2n1CCNC(=O)Cc1cccnc1 [Example 207] | − | − | + | + | − | − | + | +
CCCCc1nc2c(N)nc3cccnc3c2n1CCNC(=O)c1ccccc1OC [Example 144] | + | + | + | + | − | + | + | +
CCCCNC(=O)NCCCCn1c(CCCC)nc2c(N)nc3cccnc3c21 [Example 49, N-[4-(4-Amino-2-butyl-1H-imidazo[4,5-c][1,5]naphthyridin-1-yl)butyl]-N′-butylurea] | + | + | + | + | − | + | + | +
